PubChem BioAssay AID179 (DTP/NCI, 2004)
The source made the active and inactive calls.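 The calls were made as follows: active = compounds giving half or more protection of infected cells from virus-caused growth loss, again on retest; inactive = the rest.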

System: CEM cells HIV-1 protection, formazan growth assay
Assay: NCI AIDS Antiviral Assay
Settings: for IC50: measured here: growth of uninfected CEM cells
How it was run: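 Five concentrations of each compound were applied to infected and uninfected human CEM cells. Protection from HIV-1 was judged from growth measured with a soluble formazan assay.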

Row | Compound | EC50 [µM] | IC50 [µM] | outcome
1 | COC1(OC)c2no[n+]([O-])c2CCC1O (configuration not stated) | > 200 | > 200 | –
2 | O=C(Cn1c2ccc(Br)cc2c2nc3ccccc3nc21)N/N=C/c1ccccc1 | > 100 | > 100 | –
3 | CCOC(=O)Cc1oc2c(C(C)=O)c(O)c(C)c(O)c2c1C | > 200 | 81.3 | –
4 | COc1ccc(Cl)c(CCCCCCCC(=O)O)c1 | > 200 | > 200 | –
5 | CN1C(=O)/C(=c2\sc3nc4ccccc4n3c2=O)c2ccccc21 | – | – | inactive
6 | CN(C)CCCN=C(N)N | > 200 | > 200 | –
7 | C[C@H]1Oc2c3c(c4c(c2C(=O)[C@@H]1C)OCC=C4)OCC=C3 | > 200 | 89.1 | –
8 | CN=C1CC2c3cc(OC)c(OC)cc3CCN2C2=C1C(=O)CC(C)(C)C2 (configuration not stated) | > 200 | > 200 | –
9 | CN(C)CCCOC(=O)C1C[C@@H](O)CN1C(=O)c1ccc2c(c1)OCO2 (some centres not stated) | > 200 | > 200 | –
10 | C/C=C/C=Nc1c(C#N)c2n(c1C(=O)Nc1ccc(Cl)cc1)CCC2 | > 50.1 | 23.4 | –
11 | CCOC(=O)c1ccc(Nc2nc3ccc(C(F)(F)F)cc3nc2C(=O)OCC)cc1 | – | – | inactive
12 | CC(=O)Nc1ccc2oc(=O)ccc2c1 | > 1230 | 562 | –
13 | O=C1CCCc2sccc21 | > 200 | > 200 | –
14 | COc1cc(N2C(=O)C(=O)C3(CCCCC3)C2=O)cc(OC)c1OC | > 200 | > 200 | –
15 | CCOC(=O)/C(=C/c1ccc(OC)cc1)C(=O)c1ccccc1 | > 17 | > 17 | –
16 | CCOC(=O)C1=[N+]([O-])OC2=C(O)CCCC21 (configuration not stated) | – | – | inactive
17 | CN(C)c1ccc(C=Nc2ccc(S(N)(=O)=O)cc2)cc1 | > 200 | > 200 | –
18 | O=C(c1ccco1)N(C(=S)OCc1ccccn1)c1ccccc1 | > 200 | 105 | –
19 | O=c1c(SSc2coc3ccccc3c2=O)coc2ccccc12 | > 200 | 5.13 | –
20 | O=[N+]([O-])c1cccc(N=Cc2ccc(O)cc2)c1 | > 200 | 182 | –
21 | COCCc1c(C)c(C#N)c2n(C)c3ccccc3n2c1=O | > 200 | > 200 | –
22 | N#Cc1c(-c2ccc([N+](=O)[O-])cc2)c(C#N)c(=O)n(NS(=O)(=O)c2ccccc2)c1O | > 200 | > 200 | –
23 | [N-]=[N+]=NCC(CO)OCn1cc(Cc2cccc(OCc3ccccc3)c2)c(=O)[nH]c1=O (configuration not stated) | – | – | inactive

Row | Compound | EC50 [µM] | IC50 [µM] | outcome
24 | c1ccc(SCCCC(Sc2ccccc2)Sc2ccccc2)cc1 | – | – | inactive
25 | CCCCOC(=O)C(NC(C(=O)OCCCC)c1cc(C(C)(C)C)c(O)c(C(C)(C)C)c1)c1cc(C(C)(C)C)c(O)c(C(C)(C)C)c1 (configuration not stated) | > 200 | > 200 | –
26 | S=c1oc(CCCCCCCCc2nn(CNc3ccc(Cl)cc3)c(=S)o2)nn1CNc1ccc(Cl)cc1 | – | – | inactive
27 | Clc1ccc(C(Cc2ccccc2)c2c(Cl)nc(N3CCNCC3)nc2Cl)cc1 (configuration not stated) | > 200 | 9.12 | –
28 | O=C1C=C(Nc2ccc(S(=O)(=O)Nc3ncccn3)cc2)c2ccccc2C1=O | > 447 | 67.6 | –
29 | O=C1c2ccc([N+](=O)[O-])cc2C(=O)N1CC[P+](c1ccccc1)(c1ccccc1)c1ccccc1 | > 200 | > 200 | –
30 | CCC1=C(OC)c2nccc(C)c2C(=O)C1=O | – | – | inactive
31 | CC(C)N1CN(c2ccccc2)C2(CCN(CCCC(=O)c3ccc(F)cc3)CC2)C1=O | > 200 | 5.75 | –
32 | Cc1ccc(NC(=O)/C(C#N)=C/c2ccccc2)c(C)c1 | > 24.5 | > 24.5 | –
33 | O=C1C(=Cc2ccc(F)cc2)C(=O)c2ccccc21 | > 10.7 | > 10.7 | –
34 | O=C(NC(=O)c1c(F)cccc1F)Nc1ncc(Br)cc1Br | > 200 | > 200 | –
35 | C#CC(O)/C=C/C(O)CCCC(O)CC#CC(O)C#CCCCCC(O)/C=C/CCCC(O)/C=C/CCCCCCCCCCCCCC(O)C(O)C#CC(=O)O (configuration not stated) | > 50.1 | 28.8 | –
36 | CC12CCCN1C(=O)C1(C)CCCN1C2=O (configuration not stated) | > 200 | > 200 | –
37 | CC12CC3CC(C)(C1)CC(SC(=N)N)(C3)C2 | > 776 | 38.9 | –
38 | CC1Cn2c(nc3ccccc32)NC1=O (configuration not stated) | > 200 | > 200 | –
39 | CCN(CC)CC(=O)Nc1ccc(CO)cc1 | > 200 | > 200 | –
40 | CC(C)=CCC[C@@H](C)C1=C(O)C(Nc2ccccc2Br)=C(C)C(=O)C1=O | > 100 | 8.13 | –
41 | CCOC(=O)/C(=C\c1ccc(F)cc1)P(=O)(OCC)OCC | > 759 | 15.1 | –
42 | Cc1cc(Br)cc(C)c1NC(=O)C(=O)C(C(=O)c1ccc2ccccc2c1)C1OC(=O)c2ccccc21 (configuration not stated) | > 64.6 | 12.9 | –
43 | O=C(N/N=C/c1ccccn1)c1ccccc1[O-].O=C(N/N=C/c1ccccn1)c1ccccc1[O-].[Co+2] | > 200 | 33.9 | –
44 | N#C/C(=C(/Cc1ccc(F)cc1)NP(=O)(c1ccccc1)c1ccccc1)c1ccc(F)cc1 | > 21.4 | > 21.4 | –
45 | O=C(O)COc1ccc2c3c1C(=O)CCC3CO2 (configuration not stated) | – | – | inactive
46 | CCOC(=O)C(NC(=O)CC)(Nc1cc(C)on1)C(F)(F)F (configuration not stated) | > 200 | > 200 | –

Row | Compound | EC50 [µM] | IC50 [µM] | outcome
47 | Clc1ccc(C2=NON(c3ncccn3)C3N=CC=CN23)cc1 (configuration not stated) | > 15.8 | > 15.8 | –
48 | NCCc1nc2ccccc2[nH]1 | > 200 | > 200 | –
49 | CCOP(=O)(CCC(O)CNc1nc(N)nc(Cl)c1N=Nc1ccc(Cl)cc1)OCC (configuration not stated) | > 200 | 6.46 | –
50 | COc1cc2c(oc(=O)c3cc4cc([Si](C)(C)C)oc4c(OC)c32)c2cccc(O)c12 | > 1.2 | > 1.2 | –
51 | CC(=O)OCC1OC(n2c(N)c(C#N)c(-c3ccccc3)c(C#N)c2=S)C(OC(C)=O)C(OC(C)=O)C1OC(C)=O (configuration not stated) | > 200 | > 200 | –
52 | C[N+](C)(C)CC(=O)N/N=C/c1oc(-c2cccc([N+](=O)[O-])c2)c(-c2cccc([N+](=O)[O-])c2)c1[N+](=O)[O-] | > 9.77 | > 9.77 | –
53 | CCCCCNC(=O)CCCCCCCCCCCNC(=O)CCCCCCCCCCN1C=CC(=CC=C2C=CC(=O)C=C2)C=C1 | – | – | inactive
54 | O=C(/C=C/c1cc(F)ccc1F)OCCc1ccccc1 | – | 141 | inactive
55 | O=C(CN1CCCCC1)Nc1ccc2c(c1)C1Oc3ccccc3CC1CO2 (configuration not stated) | – | – | inactive
56 | COc1cccc(/C=N/NC(=O)c2ccccc2[O-])c1[O-].[OH3+].[Pd+2] | > 200 | 1.26 | –
57 | COc1cc2c(c(OC)c1OC)C(=O)[C@@H](OC(=O)CCCCl)[C@H]2N | > 200 | > 200 | –
58 | CC(C)Oc1nc(N2CCNCC2)nc2c1CCC2 | > 200 | 39.8 | –
59 | O=C(O)CCNCCCCNCCC(=O)O | > 813 | > 813 | –
60 | ClCCC[Si]12OCCN(CCO1)CCO2 | – | – | inactive
61 | CN(C)CC(/C(Cc1ccccc1)=N\NC(=S)NN)c1ccccc1 (configuration not stated) | > 35.5 | > 35.5 | –
62 | C/C(=N\NC(=S)Nc1ccccc1)[C@H]1C2CCC(C2)C1C/C=C\CCCC(=O)O (some centres not stated) | > 229 | 107 | –
63 | CN(CCO)CCC1COc2ccccc2O1 (configuration not stated) | – | – | inactive
64 | Cn1cc([N+](=O)[O-])cc1C(=O)Nc1ccc(S(=O)(=O)O)c2cc(S(=O)(=O)O)ccc12 | > 501 | > 501 | –
65 | O=C(NCCCCCCNC(=O)c1ccccn1)c1ccccn1 | > 200 | 191 | –
66 | COc1ccc(C2CC(c3c(O)ccc4ccccc34)=NN2c2ccc([N+](=O)[O-])cc2[N+](=O)[O-])cc1OC (configuration not stated) | > 200 | 15.8 | –
67 | CCN1C(=O)/C(=C2\SC(c3ccccc3)(c3ccccc3)c3ccccc32)SC1=S | > 200 | > 200 | –
68 | CNC(=O)NC(CCCCNC(=O)OCc1ccccc1)C(=O)OCc1ccccc1 (configuration not stated) | > 83.2 | 39.8 | –
69 | O=S1CSCS1 (configuration not stated) | > 200 | > 200 | –

Row | Compound | EC50 [µM] | IC50 [µM] | outcome
70 | NC(N)=NS(=O)(=O)c1ccc(NNc2c3ccccc3nc3c(C(=O)Nc4ccc(S(=O)(=O)Nc5ncccn5)cc4)cccc23)cc1 | > 100 | 22.9 | –
71 | O=C1c2c(c3c4ccccc4n(CC4CO4)c3c3[nH]c4ccccc4c23)C(=O)N1Cc1ccccc1 (configuration not stated) | – | – | inactive
72 | COc1ccc(C(=O)/C=C/c2ccc(OCCCOc3ccc(/C=C/C(=O)c4ccc(OC)c(OC)c4)cc3)cc2)cc1OC | > 200 | > 200 | –
73 | NC(N)=NCCCC(NC(=O)OCCCCn1ccc(N)nc1=O)C(=O)O (configuration not stated) | > 200 | > 200 | –
74 | O=C(/C(=C\c1ccc(Cl)cc1)c1ccccc1)c1ccccc1 | > 11.7 | > 11.7 | –
75 | COCc1nc(C#N)c(N)o1 | > 200 | > 200 | –
76 | CC(C)(C)c1cc(N=NC(=S)NCc2ccccc2)cc(C(C)(C)C)c1O | > 7.08 | > 7.08 | –
77 | O=C1CN(N2CCOCC2)CC(=O)N2CCCCN12 | 19.1 | > 200 | –
78 | Cc1cn(C2CC(F)C(COC(=O)CCCCCCCCCCCBr)O2)c(=O)[nH]c1=O (configuration not stated) | 0.024 | 28.8 | –
79 | CC1C2(C)OC(=N)C(C#N)(C(C)O2)C1(C#N)C#N (configuration not stated) | > 200 | 9.77 | –
80 | COc1cccc(CCNc2c(C#N)c3nc4ccccc4n3c3ccccc23)c1 | > 200 | 0.295 | –
81 | O=C(c1ccccc1)c1cccc(C(=O)c2ccccc2)n1 | > 66.1 | > 66.1 | –
82 | C#CC(C)(C)Oc1cc(OC)c2c(=O)c3ccccc3n(C)c2c1 | > 200 | 11 | –
83 | CN1C2C=CC1c1c(C3=NC(C)(C)CO3)cccc12 (configuration not stated) | > 200 | > 200 | –
84 | O=c1c2ccccc2nc(-c2ccccc2)n1NC(=S)Nc1ccc(Cl)cc1 | > 123 | 107 | –
85 | O=C(CCN1CCOCC1)c1ccc(Oc2ccc(F)cc2)cc1 | – | – | inactive
86 | CC(Oc1ccc2cc(C(=O)c3ccccc3)c(=O)oc2c1)C(=O)O (configuration not stated) | – | – | inactive
87 | COc1cccc2c1C(=O)c1c(O)c3c(c(O)c1C2=O)C[C@@](O)(C(C)=O)C[C@@H]3OC1CC(N(Cc2ccccc2)Cc2ccccc2)C(O)C(C)O1 (some centres not stated) | – | – | inactive
88 | COc1cc(O)c2c(c1)C(O)C(O)CC1OC1C(=O)/C=C/CC(C)OC2=O (configuration not stated) | > 75.9 | 0.977 | –
89 | CCCn1c(=O)c2nn3c(=O)n(CCC)c(=O)c3nn2c1=O | > 200 | > 200 | –
